Source: BindingDB's records for patent WO2022070068 (JANSSEN BIOTECH, INC., 2022)
Values joined by “and” are separate entries in the source; they are usually repeats but may differ in a detail not shown here. Equal values may be shown once.

Target: Dihydroorotate dehydrogenase (quinone), mitochondrial (Homo sapiens, UniProt Q02127)
Experiment: DHODH enzymatic assay
Description: To detect DHODH enzyme activities, dichloroindophenol (DCIP) is added as the final electron acceptor in the assay. DCIP can accept electrons from the reduced coenzyme Q generated in the assay, or from dihydroorotate (DHO) via FMN by binding presumably to the ubiquinone pocket. DCIP solutions are blue, with an intense absorbance around 600 nm, but becomes colorless upon reduction (J. Biol. Chem. (1986) 261, 11386). The assay buffer contained […], pH 7.5, 150 mM NaCl, 0.5 mM EDTA, and 0.1% Triton X-100 in MilliQ water. Substrate consisting of 20 mM DHO, 5mM CoQ6, and 1mM DCIP in assay buffer, initiates the reaction. The assay is run in end-point mode by quenching the reaction with the potent DHODH inhibitor brequinar. Absorbance measurements were obtained using the BMG Phera Star plate-reading spectrophotomer. Purified human DHODH was purchased from Proteros (cat. No. PR-0044). Chemicals were purchased from Sigma-Aldrich, Teknova, and Avanti Polar Lipids. Liquid handling was performed using Labcyte Echo and Formulatrix Tempest.

Sequence of Dihydroorotate dehydrogenase (quinone), mitochondrial (Q02127 whole entry): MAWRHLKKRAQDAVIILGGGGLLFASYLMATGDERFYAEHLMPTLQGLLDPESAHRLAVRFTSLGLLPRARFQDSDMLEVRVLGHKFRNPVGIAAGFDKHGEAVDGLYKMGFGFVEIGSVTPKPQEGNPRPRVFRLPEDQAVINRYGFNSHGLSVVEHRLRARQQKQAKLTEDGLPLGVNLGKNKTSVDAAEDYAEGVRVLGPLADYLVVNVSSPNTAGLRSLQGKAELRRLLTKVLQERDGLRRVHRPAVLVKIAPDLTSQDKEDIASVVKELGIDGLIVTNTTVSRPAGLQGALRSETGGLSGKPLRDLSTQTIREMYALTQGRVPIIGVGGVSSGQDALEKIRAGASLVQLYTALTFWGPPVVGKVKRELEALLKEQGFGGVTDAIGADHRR

IC50 | Structure (SMILES)
1.1 nM | Cc1ccccc1-n1cc(C(C)C)c2cc(-c3nc(C(C)O)n(C)n3)c(F)cc2c1=O (racemic) [WO2022070068, Example 5]
2.6 nM | Cc1ccccc1-n1cc(C(C)C)c2cc(-c3cnc(C4CC4)cn3)c(F)cc2c1=O [WO2022070068, Example 1]
0.18 nM | Cc1ccccc1-n1cc(C(C)C)c2cc(-c3ccc(C)c(N)n3)c(F)cc2c1=O [WO2022070068, Example 2]
3.6 nM | Cc1cnc(-c2cc3c(C(C)C)cn(-c4ccccc4C)c(=O)c3cc2F)cc1N [WO2022070068, Example 3]
1.7 nM | CC(=O)c1nc(-c2cc3c(C(C)C)cn(-c4ccccc4C)c(=O)c3cc2F)nn1C [WO2022070068, Example 6]
1.2 nM | Cc1ccccc1-n1cc(C(C)C)c2cc(-c3cn(C)c(CO)n3)c(F)cc2c1=O [WO2022070068, Example 8]
2.6 nM | Cc1ccccc1-n1cc(C(C)C)c2cc(-c3nc(CO)n(C)n3)c(F)cc2c1=O [WO2022070068, Example 9]
0.73 nM | Cc1ccccc1-n1cc(C(C)C)c2cc(-c3cn(C)c([C@H](C)O)n3)c(F)cc2c1=O [WO2022070068, Example 10]
0.51 nM | Cc1ccccc1-n1cc(C(C)C)c2cc(-c3cn(C)c([C@@H](C)O)n3)c(F)cc2c1=O [WO2022070068, Example 11]
1.6 nM and 2 nM | Cc1ccccc1-n1cc(C(C)C)c2cc(-c3nc([C@@H](C)O)n(C)n3)c(F)cc2c1=O [WO2022070068, Example 12]
0.48 nM and 1.1 nM | Cc1ccccc1-n1cc(C(C)C)c2cc(-c3nc([C@H](C)O)n(C)n3)c(F)cc2c1=O [WO2022070068, Example 13]
0.45 nM | Cc1ccccc1-n1nc(C(C)C)c2cc(-c3cn(C)c(C(C)(C)O)n3)c(F)cc2c1=O [WO2022070068, Example 14]
2.6 nM | Cc1ccccc1-n1nc(C(C)C)c2cc(-c3cn(C)c([C@@H](C)O)n3)c(F)cc2c1=O [WO2022070068, Example 15]
0.51 nM | Cc1n[nH]c(Cl)c1-n1cc(C(C)C)c2cc(-c3cn(C)c(C(C)(C)O)n3)c(F)cc2c1=O [WO2022070068, Example 16]
0.71 nM | Cc1n[nH]c(Cl)c1-n1cc(C(C)C)c2cc(-c3nc(C(C)(C)O)n(C)n3)c(F)cc2c1=O [WO2022070068, Example 17]
2 nM | Cc1ccnc(Cl)c1-n1cc(C(C)C)c2cc(-c3cn(C)c(C(C)(C)O)n3)c(F)cc2c1=O [WO2022070068, Example 18]
2.5 nM | Cc1ccnc(Cl)c1-n1cc(C(C)C)c2cc(-c3nc(C(C)(C)O)n(C)n3)c(F)cc2c1=O [WO2022070068, Example 19]
27 nM | CCn1nc(-c2cc3c(C(C)C)cn(-c4ccccc4C)c(=O)c3cc2F)nc1C(C)(C)O [WO2022070068, Example 20]
0.38 nM and 0.54 nM | Cc1ccccc1-n1cc(C(C)C)c2cc(-c3cn(C)c(C(C)(C)O)n3)c(F)cc2c1=O [WO2022070068, Example 23]
6.2 nM | CCn1nc(-c2cc3c(C(C)C)cn(-c4ccccc4C)c(=O)c3cc2F)nc1C(C)=O [WO2022070068, Example 24]
1.2 nM | COc1cc(-n2cc(C(C)C)c3cc(-c4cn(C)c(C(C)(C)O)n4)c(F)cc3c2=O)c(C)cn1 [WO2022070068, Example 25]
1.2 nM | COc1cc(-n2cc(C(C)C)c3cc(-c4nc(C(C)(C)O)n(C)n4)c(F)cc3c2=O)c(C)cn1 [WO2022070068, Example 26]
1.4 nM | Cc1ccc(Cl)c(-n2cc(C(C)C)c3cc(-c4cn(C)c(C(C)(C)O)n4)c(F)cc3c2=O)n1 [WO2022070068, Example 27]
19 nM | CCn1nc(-c2cc3c(C(C)C)cn(-c4ccccc4C)c(=O)c3cc2F)nc1C(C)O (stereo not given) [WO2022070068, Example 28]
0.57 nM and 0.64 nM | Cc1ccccc1-n1cc(C(C)C)c2cc(-c3nc(C(C)(C)O)n(C)n3)c(F)cc2c1=O [WO2022070068, Example 29]
